How the values were obtained:
[1] = molecular target: KDR (Homo sapiens, UniProt P35968); assay: KDR autophosphorylation ELISA in HUVEC cells; type: cell-based; parameters: endogenous in cells; host or cells: HUVEC (Lonza #C2519A); conditions: Table 3 Cellular Activities, VEGF165-stimulated, phospho-KDR ELISA
Procedure, shortened: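 Phospho-KDR levels in lysates were measured by ELISA and referenced to stimulated-vehicle (100%) and unstimulated (0%) wells, IC50 from 4-parameter logistic fit. HUVEC, starved 24 h in serum-free medium, received an 8-point compound series (0.3% DMSO) for 1 h before a 5 min 100 ng/mL VEGF165 challenge.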

[2] = molecular target: T1, Human MER (Homo sapiens, UniProt Q12866); assay: Human MER kinase assay (HTRF KinEase); type: biochemical; conditions: Table 2 Biological Activities, ATP at Km (40 μM)
T1 construct: Human MER (residues 528-999; CarnaBio, 1 ng/ well); purchased CarnaBio
T1 sequence (Q12866 528-999): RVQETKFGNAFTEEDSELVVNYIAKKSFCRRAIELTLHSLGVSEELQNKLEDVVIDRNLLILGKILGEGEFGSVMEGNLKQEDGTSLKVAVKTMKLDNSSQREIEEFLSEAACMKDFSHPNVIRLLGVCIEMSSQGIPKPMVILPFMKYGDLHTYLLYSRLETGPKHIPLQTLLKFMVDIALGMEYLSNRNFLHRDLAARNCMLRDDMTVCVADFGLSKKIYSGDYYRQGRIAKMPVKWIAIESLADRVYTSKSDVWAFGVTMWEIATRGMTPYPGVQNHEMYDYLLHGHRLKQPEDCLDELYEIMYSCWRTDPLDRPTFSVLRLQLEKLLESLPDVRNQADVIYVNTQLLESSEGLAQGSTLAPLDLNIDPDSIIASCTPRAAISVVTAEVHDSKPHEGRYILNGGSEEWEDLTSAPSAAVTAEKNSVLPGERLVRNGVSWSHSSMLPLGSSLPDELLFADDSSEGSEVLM
Description: (§1) Kinase activity and compound inhibition were investigated using the HTRF® KinEase assay (Cisbio Cat #62TKOPEB) per manufacturer's instructions. In short, compounds were delivered in 300 nL volumes at 10 different concentrations in DMSO (3% final) to empty 384-well assay plates (Corning cat #3824). A mixture of enzyme, 1 μM biotynlated peptide substrate, and buffer in 10 μL volume was added. The assay was started upon the addition of ATP (at Km). The 10 μL reaction was incubated at room temperature. The reaction was stopped upon the addition of detection buffer containing streptavidin-XL665 (5 μL) and TK antibody-Eu3+ (5 μL). After a 60 min incubation at room temperature, the fluorescence at 665 nm and 620 nm was read on an Envision microplate reader (Perkin Elmer). Kinase activity normalized to DMSO (100% activity) and reference compound at 1 μM and (0% activity) was calculated using the fluorescence ratio […]. IC50 values were calculated by nonlinear regression analysis using a 4-parameter logistic curve fit in ActivityBase XE (IDBS).
Human MER (residues 528-999; CarnaBio, 1 ng/ well) was incubated with enzymatic buffer (Cisbio) supplemented with 5 mM MgCl2 and 1 mM DTT. The mixture was added to the pre-plated compounds. The reaction was initiated upon addition of ATP at Km (40 μM). The reaction was incubated at room temperature for 60 min and stopped upon the addition of SA-XL665 and TK-antibody both diluted in EDTA-containing kinase detection buffer (Cisbio). The kinase activity was calculated as stated above and the IC50 values were reported.

[3] = molecular target: Met (Homo sapiens, UniProt P08581); assay: Human MET kinase assay (HTRF KinEase); type: biochemical; parameters: Human MET (residues 956-1390; CarnaBio, 0.1 ng/ well); purchased CarnaBio; conditions: Table 2 Biological Activities, ATP at Km (3.0 μM), read-out: c-Met IC50
Met, sequence (P08581 956-1390): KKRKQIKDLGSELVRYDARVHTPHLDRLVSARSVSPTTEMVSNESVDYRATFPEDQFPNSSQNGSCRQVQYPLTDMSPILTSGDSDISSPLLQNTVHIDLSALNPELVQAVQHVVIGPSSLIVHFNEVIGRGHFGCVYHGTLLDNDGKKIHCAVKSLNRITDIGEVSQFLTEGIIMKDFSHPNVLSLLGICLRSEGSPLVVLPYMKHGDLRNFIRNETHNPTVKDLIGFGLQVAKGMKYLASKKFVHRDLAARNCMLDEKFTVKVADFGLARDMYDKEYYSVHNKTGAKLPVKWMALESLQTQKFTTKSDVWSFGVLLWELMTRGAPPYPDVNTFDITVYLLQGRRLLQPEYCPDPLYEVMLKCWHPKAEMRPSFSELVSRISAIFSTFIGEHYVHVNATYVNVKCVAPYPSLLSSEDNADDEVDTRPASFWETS
Description: as §1
Human MET (residues 956-1390; CarnaBio, 0.1 ng/ well) was incubated with enzymatic buffer (Cisbio) supplemented with 5 mM MgCl2, 1 mM DTT and 1 mM MnCl2. The mixture was added to the pre-plated compounds. The reaction was initiated upon addition of ATP at Km (3.0 μM). The reaction was incubated at room temperature for 40 min and stopped upon the addition of SA-XL665 and TK-antibody both diluted in EDTA-containing kinase detection buffer (Cisbio). The kinase activity was calculated as stated above and the IC50 values were reported.

KDR, sequence (P35968 20-1356): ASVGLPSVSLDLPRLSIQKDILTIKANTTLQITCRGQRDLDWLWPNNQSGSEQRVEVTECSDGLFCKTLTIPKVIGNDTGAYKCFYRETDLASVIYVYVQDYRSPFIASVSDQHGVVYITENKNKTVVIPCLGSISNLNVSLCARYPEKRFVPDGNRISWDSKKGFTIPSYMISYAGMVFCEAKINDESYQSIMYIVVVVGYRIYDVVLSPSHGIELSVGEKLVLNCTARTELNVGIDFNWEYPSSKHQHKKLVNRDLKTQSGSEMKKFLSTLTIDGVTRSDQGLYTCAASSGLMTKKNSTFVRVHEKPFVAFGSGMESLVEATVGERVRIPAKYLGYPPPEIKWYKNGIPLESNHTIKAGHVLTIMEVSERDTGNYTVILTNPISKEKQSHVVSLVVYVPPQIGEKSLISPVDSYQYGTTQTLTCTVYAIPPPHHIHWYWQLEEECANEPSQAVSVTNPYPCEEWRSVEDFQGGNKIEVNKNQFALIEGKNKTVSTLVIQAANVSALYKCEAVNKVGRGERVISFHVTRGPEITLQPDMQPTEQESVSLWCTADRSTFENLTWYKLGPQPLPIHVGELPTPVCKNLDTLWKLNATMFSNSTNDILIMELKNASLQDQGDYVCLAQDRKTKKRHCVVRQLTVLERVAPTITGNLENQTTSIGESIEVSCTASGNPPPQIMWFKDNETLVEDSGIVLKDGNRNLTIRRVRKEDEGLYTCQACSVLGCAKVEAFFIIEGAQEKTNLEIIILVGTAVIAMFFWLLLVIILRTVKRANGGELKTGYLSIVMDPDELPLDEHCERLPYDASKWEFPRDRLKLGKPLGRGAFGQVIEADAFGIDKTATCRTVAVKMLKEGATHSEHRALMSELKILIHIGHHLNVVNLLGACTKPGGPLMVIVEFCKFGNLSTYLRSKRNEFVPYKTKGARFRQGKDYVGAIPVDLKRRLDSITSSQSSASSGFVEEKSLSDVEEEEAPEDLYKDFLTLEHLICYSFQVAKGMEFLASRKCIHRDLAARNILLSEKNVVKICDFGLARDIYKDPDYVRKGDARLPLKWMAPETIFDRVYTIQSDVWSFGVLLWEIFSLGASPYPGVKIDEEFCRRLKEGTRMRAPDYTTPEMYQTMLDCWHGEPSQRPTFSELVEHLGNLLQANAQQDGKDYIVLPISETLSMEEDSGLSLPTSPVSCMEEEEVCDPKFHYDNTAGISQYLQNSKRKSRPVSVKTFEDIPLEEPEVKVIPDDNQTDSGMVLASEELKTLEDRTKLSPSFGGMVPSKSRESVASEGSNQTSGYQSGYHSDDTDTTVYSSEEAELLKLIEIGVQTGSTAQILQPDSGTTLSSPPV

SMILES | IC50 [1] | IC50 [2] | IC50 [3]
COc1ccc2nccc(Oc3ccc(NC(=O)c4ccc(C)n(-c5ccc(F)cn5)c4=O)cc3F)c2n1 [Compound 47, N-[3-Fluoro-4-[(6-methoxy-1,5-naphthyridin-4-yl)oxy]phenyl]-1-(5-fluoropyridin-2-yl)-6-methyl-2-oxopyridine-3-carboxamide] | ≤ 100 nM | ≤ 100 nM | 100 to 300 nM
Cc1ccc(C(=O)Nc2ccc(Oc3ccnc4cnc(Cl)cc34)c(F)c2)c(=O)n1-c1ccc(F)cn1 [Compound 54A, N-[4-[(6-Chloro-1,7-naphthyridin-4-yl)oxy]-3-fluorophenyl]-1-(5-fluoropyridin-2-yl)-6-methyl-2-oxopyridine-3-carboxamide] | 100 to 300 nM | ≤ 100 nM | 100 to 300 nM
COc1cc2nccc(Oc3ccc(NC(=O)c4ccc(C)n(-c5ccc(F)cn5)c4=O)cc3)c2nc1OC [Compound 44, N-[4-[(6,7-Dimethoxy-1,5-naphthyridin-4-yl)oxy]phenyl]-1-(5-fluoropyridin-2-yl)-6-methyl-2-oxopyridine-3-carboxamide] | ≤ 100 nM | ≤ 100 nM | ≤ 100 nM
COc1ccc2nccc(Oc3ccc(NC(=O)c4ccc(C)n(-c5ccc(F)cn5)c4=O)cc3F)c2c1 [Compound 49, N-[3-Fluoro-4-(6-methoxyquinolin-4-yl)oxyphenyl]-1-(5-fluoropyridin-2-yl)-6-methyl-2-oxopyridine-3-carboxamide] | ≤ 100 nM | ≤ 100 nM | ≤ 100 nM
COc1cnc2c(Oc3ccc(NC(=O)c4c(C)ncc(-c5ccccn5)c4O)cc3F)ccnc2c1 [Compound 70, N-[3-Fluoro-4-[(7-methoxy-1,5-naphthyridin-4-yl)oxy]phenyl]-4-hydroxy-2-methyl-5-pyridin-2-ylpyridine-3-carboxamide] | ≤ 100 nM | ≤ 100 nM | ≤ 100 nM
COc1cnc2c(Oc3ccc(NC(=O)c4ccc(C)n(-c5ccc(F)cn5)c4=O)cc3F)ccnc2c1 [Compound 45, N-[3-Fluoro-4-[(7-methoxy-1,5-naphthyridin-4-yl)oxy]phenyl]-1-(5-fluoropyridin-2-yl)-6-methyl-2-oxopyridine-3-carboxamide] | ≤ 100 nM | ≤ 100 nM | ≤ 100 nM
COc1cc2nccc(Oc3ccc(NC(=O)c4ccc(C)n(-c5ccc(F)cn5)c4=O)cc3F)c2nc1OC [Compound 43, N-[4-[(6,7-Dimethoxy-1,5-naphthyridin-4-yl)oxy]-3-fluorophenyl]-1-(5-fluoropyridin-2-yl)-6-methyl-2-oxopyridine-3-carboxamide] | ≤ 100 nM | ≤ 100 nM | ≤ 100 nM
COc1cnc2c(Oc3ccc(NC(=O)c4c(C)n(C)cc(-c5ccc(F)cn5)c4=O)cc3F)ccnc2c1 [Compound 73, N-[3-Fluoro-4-[(7-methoxy-1,5-naphthyridin-4-yl)oxy]phenyl]-5-(5-fluoropyridin-2-yl)-1,2-dimethyl-4-oxopyridine-3-carboxamide] | 300 to 1000 nM | 100 to 300 nM | 300 to 1000 nM
COc1cc2nccc(Oc3ccc(NC(=O)c4cn(C)c(C)c(-c5ccc(F)cn5)c4=O)cc3)c2nc1OC [Compound 86, N-[4-[(6,7-Dimethoxy-1,5-naphthyridin-4-yl)oxy]phenyl]-5-(5-fluoropyridin-2-yl)-1,6-dimethyl-4-oxopyridine-3-carboxamide] | 300 to 1000 nM | ≤ 100 nM | ≤ 100 nM
COc1cc2nccc(Oc3ccc(NC(=O)c4cccn(-c5ccc(F)cn5)c4=O)cc3F)c2nc1OC [Compound 42, N-[4-[(6,7-Dimethoxy-1,5-naphthyridin-4-yl)oxy]-3-fluorophenyl]-1-(5-fluoropyridin-2-yl)-2-oxopyridine-3-carboxamide] | ≤ 100 nM | ≤ 100 nM | ≤ 100 nM
COc1cc2nccc(Oc3ccc(NC(=O)c4cc(C#N)c(C)n(-c5ccc(F)cn5)c4=O)cc3F)c2nc1OC [Compound 56, 5-Cyano-N-[4-[(6,7-dimethoxy-1,5-naphthyridin-4-yl)oxy]-3-fluorophenyl]-1-(5-fluoropyridin-2-yl)-6-methyl-2-oxopyridine-3-carboxamide] | 300 to 1000 nM | ≤ 100 nM | ≤ 100 nM
